The values below come from paper PMC6934184, “Selective DNA-PKcs inhibition extends the therapeutic index of localized radiotherapy and chemotherapy” (The Journal of Clinical Investigation, 2019).

Molecules are shown by their SMILES.

The target in this test is T1, TEK (TIE2) Y1108F (Homo sapiens, UniProt Q02763, Y1108F).
T1 construct: purchased Thermo Fisher Scientific (Life Technologies) SelectScreen
The test can be described thus: SelectScreen LanthaScreen. Format: binding. The settings on record: read-out: % displacement. The method, boiled down:
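SelectScreen broad panel; activity (Z'LYTE, Adapta) plus binding formats. ATP: Km app for CSF1R Z'LYTE; 10 for CAMK1 Adapta. Readout = % per kinase.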
For orientation: In TR-FRET formats the signal depends on donor and acceptor labels being close together.

T1 sequence (Q02763 23-1124 Y1108F): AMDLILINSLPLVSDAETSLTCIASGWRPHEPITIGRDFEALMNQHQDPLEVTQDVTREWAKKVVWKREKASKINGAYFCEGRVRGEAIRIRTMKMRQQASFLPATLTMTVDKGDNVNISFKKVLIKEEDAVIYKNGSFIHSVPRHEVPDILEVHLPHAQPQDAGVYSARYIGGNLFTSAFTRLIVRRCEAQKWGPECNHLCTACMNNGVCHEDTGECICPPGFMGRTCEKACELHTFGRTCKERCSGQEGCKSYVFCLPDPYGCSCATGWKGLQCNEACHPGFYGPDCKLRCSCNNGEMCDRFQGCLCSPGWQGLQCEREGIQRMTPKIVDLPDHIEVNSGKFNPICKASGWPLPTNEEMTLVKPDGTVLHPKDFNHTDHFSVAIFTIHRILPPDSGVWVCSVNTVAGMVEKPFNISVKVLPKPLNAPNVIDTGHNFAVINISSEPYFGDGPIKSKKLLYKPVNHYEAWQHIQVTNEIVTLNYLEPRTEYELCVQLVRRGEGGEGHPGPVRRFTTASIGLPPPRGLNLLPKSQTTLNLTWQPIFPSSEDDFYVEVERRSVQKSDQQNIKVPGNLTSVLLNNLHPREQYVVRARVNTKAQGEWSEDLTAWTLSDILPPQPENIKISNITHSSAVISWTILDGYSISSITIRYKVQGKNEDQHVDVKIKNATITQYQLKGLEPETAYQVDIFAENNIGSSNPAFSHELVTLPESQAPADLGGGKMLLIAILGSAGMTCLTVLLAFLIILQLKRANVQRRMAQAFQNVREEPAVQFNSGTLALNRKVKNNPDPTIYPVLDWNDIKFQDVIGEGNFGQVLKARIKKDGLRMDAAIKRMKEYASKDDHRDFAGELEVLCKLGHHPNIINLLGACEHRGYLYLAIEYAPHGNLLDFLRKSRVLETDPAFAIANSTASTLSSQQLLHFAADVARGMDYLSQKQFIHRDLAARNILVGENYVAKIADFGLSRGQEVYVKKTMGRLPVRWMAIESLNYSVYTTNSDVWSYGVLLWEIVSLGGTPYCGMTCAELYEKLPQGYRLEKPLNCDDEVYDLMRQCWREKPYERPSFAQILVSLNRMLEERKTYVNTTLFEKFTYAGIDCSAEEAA

Turning to `CN(C(=O)CN1CCOCC1)c1ccc2sc3c(-c4cccc5c(=O)cc(N6CC7CCC(C6)O7)oc45)cccc3c2c1` [NU5455], the inhibition at 1 µM was -0.3%.
